The text below walks through data of patent US9682938B2, “Pyrazolone derivatives as nitroxyl donors” (Cardioxyl Pharmaceuticals, Inc., priority 2014, dated 2017).

SMILES strings stand for the structures.

Common to all, as to format: in vitro ADME
Data set [1] can be described thus: In vitro plasma stability, dog plasma. To be noted: male, pH 7.4, 5 μM, 37° C., sampling 0-360 minutes, read-out: T1/2 Dog. On the procedure: (§1) Certain compounds from Table 1 were tested for their stability in plasma. The assay system comprised plasma from rat, dog or human (at least 3 donors, male, pooled) at pH 7.4, and (ii) an anticoagulant (sodium heparin or sodium citrate). Each test compound (5 μM) was incubated in plasma at 37° C. on a THERMOMIXER® with shaking. Three samples (n=3) were taken at each of seven sampling time points: 0, 10, 30, 60, 90, 180 and 360 minutes. The samples were immediately combined with 3 volumes (i.e., 3 times the volume of plasma) of acetonitrile containing 1% formic acid and an internal standard to terminate the reaction. AB SCIEX API 3000 LC-MS/MS analysis of the test compounds was performed without a standard curve. Plasma half-lives (T1/2) of the test compounds were determined from graphs of the percent remaining values using the peak area response ratio.

A short description of data set [2]: In vitro plasma stability, rat plasma. Particulars: male, pH 7.4, 5 μM, 37° C., sampling 0-360 minutes, read-out: T1/2 Rat. On the procedure: as §1
Data set [3] is described as follows: In vitro plasma stability, human plasma. To be noted: male, pH 7.4, 5 μM, 37° C., sampling 0-360 minutes, read-out: T1/2 Human. As to the method: as §1

On to `CCOc1cc(F)ccc1C1=NN(C)C(=O)C1(C)NO` (stereo not drawn) [Compound 62, 3-(2-ethoxy-4-fluorophenyl)-4-(hydroxyamino)-1,4-dimethyl-1H-pyrazol-5(4H)-one], for which the half-life at 5 μM amounted to 44 min in data set [1] and 114 min in data set [2]. As for `COC(=O)c1ccc(C2=NN(C)C(=O)C2(C)NO)cc1` (stereo not drawn) [Compound 71, Methyl 4-[4-(hydroxyamino)-1,4 dimethyl-5-oxo-4,5-dihydro-1H-pyrazol-3-yl]benzoate], the figures for the half-life at 5 μM in data set [1], in data set [2] and in data set [3] were 71 min, 3 min and 58 min, respectively.

For the compound `CN1N=C(c2ccc([S+](C)[O-])cc2)C(C)(NO)C1=O` (stereo not drawn) [Compound 11, 4-(hydroxyamino)-2,4-dimethyl-5-(4-(methylsulfinyl)phenyl)-2,4-dihydro-3H-pyrazol-3-one], the half-life at 5 μM was 39 min in data set [1], 88 min in data set [2] and 65 min in data set [3]. Turning to `CO/N=C(\C)C1(NO)C(=O)N(C(C)C)N=C1C(C)(C)C` (stereo not drawn) [Compound 28, 5-(tert-butyl)-4-(hydroxyamino)-2-iso-propyl-4-(1-(methoxyimino)ethyl)-2,4-dihydro-3H-pyrazol-3-one], the half-life at 5 μM in data set [1] was 87 min. As for `CN1N=C(c2ccc(S(C)(=O)=O)c(N3CCNCC3)c2)C(C)(NO)C1=O` (stereo not drawn) [Compound 93, 4-(Hydroxyamino)-3-[4-methanesulfonyl-3-(piperazin-1-yl)phenyl]-1,4-dimethyl-4,5-dihydro-1H-pyrazol-5-one], the half-life at 5 μM was found to be 32 min in data set [1], 66 min in data set [2] and 35 min in data set [3]. For `CO/N=C(\C)C1(NO)C(=O)N(C)N=C1c1ccc(F)cc1` (stereo not drawn) [Compound 64, 3-(4-fluorophenyl)-4-(hydroxyamino)-4-(1-(methoxyimino)ethyl)-1-methyl-1H-pyrazol-5(4H)-one], the half-life at 5 μM is 16 min in data set [1], 6 min in data set [2] and 8 min in data set [3]. For `CCOC1=NN(c2ccccc2)C(=O)C1(C)NO` (stereo not drawn) [Compound 127, 3-Ethoxy-4-(hydroxyamino)-4-methyl-1-phenyl-4,5-dihydro-1H-pyrazol-5-one], the half-life at 5 μM in data set [1], in data set [2] and in data set [3] was above 480 min throughout. For `CN1N=C(c2ccc(S(=O)(=O)c3ccccc3)cc2)C(C)(NO)C1=O` (stereo not drawn) [Compound 89, 3-[4-(Benzenesulfonyl)phenyl]-4-(hydroxyamino)-1,4-dimethyl-4,5-dihydro-1H-pyrazol-5-one], the half-life at 5 μM stood at 29 min in data set [1], 36 min in data set [2] and 57 min in data set [3].

For `CC1=NN(C)C(=O)C1(NO)/C(C)=N/OCc1ccccc1` (stereo not drawn) [Compound 103, 4-(Hydroxyamino)-1,3-dimethyl-4-[1-(benzyloxyimino)ethyl]-4,5-dihydro-1H-pyrazol-5-one], in data set [1], the half-life at 5 μM was 3 min. Turning to `CC1=NN(C)C(=O)C1(NO)c1cccc(Cl)c1` (stereo not drawn) [Compound 99, 4-(3-Chlorophenyl)-4-(hydroxyamino)-1,3-dimethyl-4,5-dihydro-1H-pyrazol-5-one], the half-life at 5 μM in data set [1] turned out to be 4 min.

Take `CN1N=C(c2cccc(Cl)c2)C(C)(NO)C1=O` (stereo not drawn) [Compound 54, 3-(3-chlorophenyl)-4-(hydroxyamino)-1,4-dimethyl-1H-pyrazol-5(4H)-one]: in data set [1], the half-life at 5 μM came out at 159 min. For `CC1(NO)C(=O)N(c2ccccc2)N=C1C(F)(F)F` (stereo not drawn) [Compound 61, 4-(hydroxyamino)-4-methyl-1-phenyl-3-(trifluoromethyl)-1H-pyrazol-5(4H)-one], in data set [1], the half-life at 5 μM is above 360 min. Turning to `COc1ccc(C2(NO)C(=O)N(C)N=C2C)cc1C` (stereo not drawn) [Compound 76, 4-(Hydroxyamino)-4-(4-methoxy-3-methylphenyl)-1,3-dimethyl-4,5-dihydro-1H-pyrazol-5-one], in data set [1], the half-life at 5 μM turned out to be 21 min. Still for that read-out and setting: next, `CC(C)N1N=C(c2ccccc2Cl)C(C)(NO)C1=O` (stereo not drawn) [Compound 8, 5-(2-chlorophenyl)-4-(hydroxyamino)-2-iso-propyl-4-methyl-2,4-dihydro-3H-pyrazol-3-one]: 170 min; `CO/N=C(\C)C1(NO)C(=O)N(C)N=C1c1ccc(C(F)(F)F)cc1` (stereo not drawn) [Compound 52, 4-(hydroxyamino)-4-(1-(methoxyimino)ethyl)-1-methyl-3-(4-(trifluoromethyl)phenyl)-1H-pyrazol-5(4H)-one]: 8 min; `CC1(NO)C(=O)N(c2ccccc2)N=C1c1ccccc1F` (stereo not drawn) [Compound 29, 5-(2-fluorophenyl)-4-(hydroxyamino)-4-methyl-2-phenyl-2,4-dihydro-3H-pyrazol-3-one]: 58 min.

`CN1N=C(c2cccc(Cl)c2Cl)C(C)(NO)C1=O` (stereo not drawn) [Compound 57, 3-(2,3-dichlorophenyl)-4-(hydroxyamino)-1,4-dimethyl-1H-pyrazol-5(4H)-one]: the half-life at 5 μM in data set [1] was determined as 15 min. On the same count and under the same terms, the result for `CN1N=C(c2ccc(Cl)cc2Cl)C(C)(NO)C1=O` (stereo not drawn) [Compound 58, 3-(2,4-dichlorophenyl)-4-(hydroxyamino)-1,4-dimethyl-1H-pyrazol-5(4H)-one] reads 19 min; that for `CN1N=C(c2ccccc2C(F)(F)F)C(C)(NO)C1=O` (stereo not drawn) [Compound 60, 4-(hydroxyamino)-1,4-dimethyl-3-(2-(trifluoromethyl)phenyl)-1H-pyrazol-5(4H)-one], 49 min; that for `CC1=NN(C)C(=O)C1(NO)c1cccc(F)c1` (stereo not drawn) [Compound 96, 4-(3-Fluorophenyl)-4-(hydroxyamino)-1,3-dimethyl-4,5-dihydro-1H-pyrazol-5-one], 6 min.

Turning to `CC1(NO)C(=O)N(c2ccc(Br)cc2)N=C1c1ccccc1Cl` (stereo not drawn) [Compound 44, 1-(4-bromophenyl)-3-(2-chlorophenyl)-4-(hydroxyamino)-4-methyl-1H-pyrazol-5(4H)-one], the half-life at 5 μM in data set [1] is 26 min. For the compound `CN1N=C(c2ccccc2OC(F)(F)F)C(C)(NO)C1=O` (stereo not drawn) [Compound 56, 4-(hydroxyamino)-1,4-dimethyl-3-(2-(trifluoromethoxy)phenyl)-1H-pyrazol-5(4H)-one], the half-life at 5 μM in data set [1] is 69 min. Consider `CN1N=C(c2ccc(C(C)(C)C)cc2)C(C)(NO)C1=O` (stereo not drawn) [Compound 91, 3-(4-tert-Butylphenyl)-4-(hydroxyamino)-1,4-dimethyl-4,5-dihydro-1H-pyrazol-5-one], for which, in data set [1], the half-life at 5 μM is 226 min. On to `CO/N=C(\C)C1(NO)C(=O)N(C)N=C1C(C)C` (stereo not drawn) [Compound 63, 4-(hydroxyamino)-3-isopropyl-4-(1-(methoxyimino)ethyl)-1-methyl-1H-pyrazol-5(4H)-one], for which, in data set [1], the half-life at 5 μM is above 360 min. As for `CN1N=C(c2ccc(C(=O)NCC(=O)O)cc2)C(C)(NO)C1=O` (stereo not drawn) [Compound 95, 2-({4-[4-(Hydroxyamino)-1,4-dimethyl-5-oxo-4,5-dihydro-1H-pyrazol-3-yl]phenyl}formamido)acetic acid], the half-life at 5 μM in data set [1] came out at 120 min.

For `CO/N=C(\C)C1(NO)C(=O)N(c2ccccc2)N=C1C(C)C` (stereo not drawn) [Compound 16, 4-(hydroxyamino)-5-iso-propyl-4-(1-(methoxyimino)ethyl)-2-phenyl-2,4-dihydro-3H-pyrazol-3-one], the half-life at 5 μM in data set [1] was 8 min.

For the compound `CC1=NN(C)C(=O)C1(NO)c1ccc([S+](C)[O-])cc1` (stereo not drawn) [Compound 65, 4-(hydroxyamino)-1,3-dimethyl-4-(4-(methylsulfinyl)phenyl)-1H-pyrazaol-5(4H)-one], the half-life at 5 μM in data set [1] was found to be 8 min. Consider `CO/N=C(\C)C1(NO)C(=O)N(C)N=C1C1CC1` (stereo not drawn) [Compound 20, 5-cyclopropyl-4-(hydroxyamino)-4-(1-(methoxyimino)ethyl)-2-methyl-2,4-dihydro-3H-pyrazol-3-one], for which the half-life at 5 μM in data set [1] worked out at 20 min. For the compound `CC1=NN(c2ccc(Br)cc2)C(=O)C1(NO)c1ccccc1` (stereo not drawn) [Compound 47, 1-(4-bromophenyl)-4-(hydroxyamino)-3-methyl-4-phenyl-1H-pyrazol-5(4H)-one], in data set [1], the half-life at 5 μM amounted to 11 min. Still for that read-out and setting: the result for `COc1ccccc1C1=NN(C)C(=O)C1(C)NO` (stereo not drawn) [Compound 55, 4-(hydroxyamino)-3-(2-methoxyphenyl)-1,4-dimethyl-1H-pyrazol-5(4H)-one] reads 116 min. `CO/N=C(\C)C1(NO)C(=O)N(c2ccccc2)N=C1Sc1ccccc1` (stereo not drawn) [Compound 128, 4-(Hydroxyamino)-4-[1(methoxyimino)ethyl]-1-phenyl-3-(phenylsulfanyl)-4,5-dihydro-1H-pyrazol-5-one]: the half-life at 5 μM worked out at 3 min in data set [1] and 7 min in data set [2].

As to `CC1(NO)C(=O)N(c2ccc(Br)cc2)N=C1c1ccccc1` (stereo not drawn) [Compound 50, 1-(4-bromophenyl)-4-(hydroxyamino)-4-methyl-3-phenyl-1H-pyrazol-5(4H)-one], in data set [1], the half-life at 5 μM was 356 min. On the same count and under the same terms, next, `CO/N=C(\C)C1(NO)C(=O)N(c2ccc(Br)cc2)N=C1C(C)C` (stereo not drawn) [Compound 17, 2-(4-bromophenyl)-4-(hydroxyamino)-5-iso-propyl-4-(1-(methoxyimino)ethyl)-2,4-dihydro-3H-pyrazol-3-one]: below 1 min; `CC1=NN(C)C(=O)C1(NO)/C(C)=N/Oc1ccccc1` (stereo not drawn) [Compound 102, 4-(Hydroxyamino)-1,3-dimethyl-4-[1-(phenoxyimino)ethyl]-4,5-dihydro-1H-pyrazol-5-one]: below 1 min.
